Test results taken from the supplement of paper PMC11061612.

Legend:
Experiment in all cases: combination Emax (second highest fraction inhibited in the dose matrix, 72 h); higher = more inhibition; extreme values may be limits of the assay
[1] = test system: U-266 (Plasma Cell Myeloma)
Procedure, shortened: (§1)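 Cell lines in DMEM/F12 or RPMI with 10% FBS were plated in 1536-well plates, held 24 hours at 37°C, 5% CO2, then given two-drug dose matrices for 72 hours (DMSO typically 0.2%). Viability was read by CellTiter-Glo 2.0 luminescence and scaled as inhibition from 0 (vehicle wells) to 1 (blank wells). Combination Emax is the second-highest inhibition in the matrix; Bliss excess is observed combination effect minus expected EA + EB − EA·EB, EA and EB being single-agent effects.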

[2] = test system: SW1990 (Pancreatic Carcinoma)
Procedure, shortened: as §1

[3] = test system: SW1783 (Low Grade Glioma)
Procedure, shortened: as §1

[4] = test system: HT-29 (Colorectal Carcinoma)
Procedure, shortened: as §1

[5] = test system: IHH-4 (Thyroid Gland Carcinoma)
Procedure, shortened: as §1

[6] = test system: SNU-C5 (Colorectal Carcinoma)
Procedure, shortened: as §1

[7] = test system: TGBC24TKB (Biliary Tract Carcinoma)
Procedure, shortened: as §1

[8] = test system: OCI-AML2 (Acute Myeloid Leukemia)
Procedure, shortened: as §1

[9] = test system: SW756 (Cervical Carcinoma)
Procedure, shortened: as §1

[10] = test system: SW780 (Bladder Carcinoma)
Procedure, shortened: as §1

[11] = test system: NCI-H1781 (Lung Adenocarcinoma)
Procedure, shortened: as §1

[12] = test system: CFPAC-1 (Pancreatic Carcinoma)
Procedure, shortened: as §1

[13] = test system: KM-H2 (Hodgkin's Lymphoma)
Procedure, shortened: as §1

[14] = test system: RH-1 (Ewing's Sarcoma)
Procedure, shortened: as §1

[15] = test system: MDA-MB-157 (Breast Carcinoma)
Procedure, shortened: as §1

[16] = test system: COR-L23 (Non-Small Cell Lung Carcinoma)
Procedure, shortened: as §1

[17] = test system: NCI-H1694 (Small Cell Lung Carcinoma)
Procedure, shortened: as §1

[18] = test system: COR-L95 (Small Cell Lung Carcinoma)
Procedure, shortened: as §1

[19] = test system: NCI-H2369 (Mesothelioma)
Procedure, shortened: as §1

[20] = test system: HPAC (Pancreatic Carcinoma)
Procedure, shortened: as §1

Compound	combination Emax [13]	combination Emax [1]	combination Emax [2]	combination Emax [3]	combination Emax [4]	combination Emax [5]	combination Emax [6]	combination Emax [7]	combination Emax [8]	combination Emax [9]	combination Emax [10]	combination Emax [11]	combination Emax [12]	combination Emax [14]	combination Emax [15]	combination Emax [16]	combination Emax [17]	combination Emax [18]	combination Emax [19]	combination Emax [20]
COc1cccc(OCCCN)c1-c1cc(Nc2cnc(C#N)cn2)n[nH]1 [Prexasertib] + O=C(c1cc(Cc2n[nH]c(=O)c3ccccc23)ccc1F)N1CCN(C(=O)C2CC2)CC1 [Olaparib] (first compound max 1 µM, 7x7, partner max 10 µM)	0.877	0.749	0.696	0.508	0.84	0.789	0.776	0.835	1	0.456	0.23	0.631	0.671	1	0.938	0.657	0.797	0.682	0.283	0.593
CS(=O)(=O)CCNCc1ccc(-c2ccc3ncnc(Nc4ccc(OCc5cccc(F)c5)c(Cl)c4)c3c2)o1 [Lapatinib] + C[C@@H](Oc1cc(-c2cnn(C3CCNCC3)c2)cnc1N)c1c(Cl)ccc(F)c1Cl [Crizotinib] (first compound max 10 µM, 7x7, partner max 10 µM)	0.931	0.495	0.331	0.248	0.942	0.907	0.764	0.952	0.915	0.313	0.489	0.774	0.963	0.939	0.493	0.949	0.291	0.812	0.254	0.929
COc1cccc(OCCCN)c1-c1cc(Nc2cnc(C#N)cn2)n[nH]1 [Prexasertib] + CCc1c2c(nc3ccc(O)cc13)-c1cc3c(c(=O)n1C2)COC(=O)[C@]3(O)CC [SN-38] (first compound max 1 µM, 7x7, partner max 0.3 µM)	0.944	0.703	0.741	0.847	0.936	0.965	0.928	0.852	1	0.802	0.969	0.993	0.841	1	0.989	0.852	1	0.844	0.4	0.887
CC(=O)c1c(C)c2cnc(Nc3ccc(N4CCNCC4)cn3)nc2n(C2CCCC2)c1=O [Palbociclib] + CC1(C)CCC(CN2CCN(c3ccc(C(=O)NS(=O)(=O)c4ccc(NCC5CCOCC5)c([N+](=O)[O-])c4)c(Oc4cnc5[nH]ccc5c4)c3)CC2)=C(c2ccc(Cl)cc2)C1 [Venetoclax] (first compound max 10 µM, 7x7, partner max 1 µM)	0.383	0.35	0.143	0.0456	0.399	0.393	0.468	0.274	1	0.0569	0.108	0.118	0.311	0.277	0.115	0.106	0.404	0.709	0.139	0.204
CC(=O)Nc1cccc(-n2c(=O)n(C3CC3)c(=O)c3c(Nc4ccc(I)cc4F)n(C)c(=O)c(C)c32)c1 [Trametinib] + Cc1nc(-c2cn3c(n2)-c2ccc(-c4cnn(C(C)(C)C(N)=O)c4)cc2OCC3)n(C(C)C)n1 [Taselisib] (first compound max 1 µM, 7x7, partner max 10 µM)	0.227	0.796	0.971	0.7	0.981	0.78	0.794	0.969	1	0.626	0.541	0.88	0.826	0.594	0.336	0.919	0.324	0.439	0.294	1

The next lines start with results.

combination Emax [13]	Compound	combination Emax [1]	combination Emax [2]	combination Emax [3]	combination Emax [4]	combination Emax [5]	combination Emax [6]	combination Emax [7]	combination Emax [8]	combination Emax [9]	combination Emax [10]	combination Emax [11]	combination Emax [12]	combination Emax [14]	combination Emax [15]	combination Emax [16]	combination Emax [17]	combination Emax [18]	combination Emax [19]	combination Emax [20]
0.766	CCN(CCO)CCCOc1ccc2c(Nc3cc(CC(=O)Nc4cccc(F)c4)[nH]n3)ncnc2c1 [AZD2811] + C[C@@H]1COCCN1C2=NC(=NC(=C2)C3(CC3)[S@](=N)(=O)C)C4=C5C=CNC5=NC=C4 [AZD6738] (first compound max 1 µM, 7x7, partner max 10 µM)	0.426	0.513	0.321	0.829	0.763	0.755	0.746	0.984	0.171	0.334	0.775	0.399	1	0.894	0.511	0.73	0.533	0.178	0.583
0.968	Cc1c2c(nn1C)CSCc1cc(n(C)n1)CSc1cc(c3ccccc3c1)OCCCc1c(C(=O)O)n(C)c3c-2c(Cl)ccc13 [AZD5991] + C=CCn1c(=O)c2cnc(Nc3ccc(N4CCN(C)CC4)cc3)nc2n1-c1cccc(C(C)(C)O)n1 [AZD1775] (first compound max 1 µM, partner max 1 µM)	0.99	0.537	0.322	0.877	0.684	0.732	0.672	1	0.427	0.172	0.65	0.555	0.994	0.958	0.605	0.961	0.757	0.327	0.857
0.926	Cn1cnc2c(F)c(Nc3ccc(Br)cc3Cl)c(C(=O)NOCCO)cc21 [Selumetinib] + C=CCn1c(=O)c2cnc(Nc3ccc(N4CCN(C)CC4)cc3)nc2n1-c1cccc(C(C)(C)O)n1 [AZD1775] (first compound max 10 µM, partner max 1 µM)	0.847	0.431	0.392	0.889	0.742	0.722	0.637	1	0.346	0.369	0.485	0.453	1	0.48	0.722	0.371	0.32	0.276	0.877
0.933	Cc1cc2ncnn2cc1Nc1ncc2c(n1)n(C1CCOCC1)c(=O)n2C [AZD7648] + C=CCn1c(=O)c2cnc(Nc3ccc(N4CCN(C)CC4)cc3)nc2n1-c1cccc(C(C)(C)O)n1 [AZD1775] (first compound max 10 µM, partner max 1 µM)	0.697	0.467	0.322	0.816	0.802	0.609	0.786	0.986	0.442	0.233	0.482	0.444	1	0.649	0.36	0.383	0.583	0.314	0.748
0.153	Cn1cnc2c(F)c(Nc3ccc(Br)cc3Cl)c(C(=O)NOCCO)cc21 [Selumetinib] + CC(C)n1c(=O)n(C)c2cnc3cc(F)c(-c4ccc(OCCCN5CCCCC5)nc4)cc3c21 [AZD1390] (first compound max 10 µM, 7x7, partner max 0.3 µM)	0.532	0.202	0.0665	0.709	0.436	0.351	0.828	0.993	0.229	0.381	0.218	0.202	0.048	0.131	0.268	0.206	0.18	0.129	0.678
0.879	NC1(C(=O)N[C@@H](CCO)c2ccc(Cl)cc2)CCN(c2ncnc3[nH]ccc23)CC1 [Capivasertib] + C[C@@H]1COCCN1C2=NC(=NC(=C2)C3(CC3)[S@](=N)(=O)C)C4=C5C=CNC5=NC=C4 [AZD6738] (first compound max 10 µM, 7x7, partner max 10 µM)	0.365	0.498	0.679	0.834	0.859	0.811	0.711	0.983	0.428	0.284	0.685	0.567	0.97	0.884	0.707	0.682	0.542	0.338	0.545
0.19	COc1cc2ncnc(Nc3ccc(F)c(Cl)c3)c2cc1OCCCN1CCOCC1 [Gefitinib] + CC(C)n1c(=O)n(C)c2cnc3cc(F)c(-c4ccc(OCCCN5CCCCC5)nc4)cc3c21 [AZD1390] (first compound max 10 µM, 7x7, partner max 0.3 µM)	0.124	0.213	0.0328	0.315	0.0356	0.0876	0.348	0.083	0.1	0.14	0.538	0.304	0.188	0.125	0.0639	0.19	0.261	0.0747	0.222
0.196	CN(CCO)CC[C@H](CSc1ccccc1)Nc1ccc(S(=O)(=O)NC(=O)c2ccc(N3CCC([C@@H](O)c4ccccc4-c4ccc(Cl)cc4)CC3)cc2)cc1S(=O)(=O)C(F)(F)F [AZD4320] + CCN(CCO)CCCOc1ccc2c(Nc3cc(CC(=O)Nc4cccc(F)c4)[nH]n3)ncnc2c1 [AZD2811] (first compound max 1 µM, 7x7, partner max 1 µM)	0.718	0.183	0.412	0.232	0.282	0.196	0.822	1	0.157	0.803	0.741	0.115	0.913	0.257	0.15	0.94	1	0.378	0.844
